Read-outs that look alike come from different tables or passages of the source.
How the values were obtained:
NRF2 [1] = assay: in vitro; type: cell-based, human
LC3A/B puncta = assay: Autophagy induction analysis (LC3A/B puncta immuno-staining); type: cell-based, human
Outline: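 WI-38 cells were treated with compounds for 24 hrs, then immunostained for LC3A/B (overnight, 4° C) with DAPI counterstain and imaged by high-content microscopy. Experiment 1 used total puncta intensity. Experiment 2 used LAMP2-colocalized (lysosomal) puncta. Intensity was normalized to nuclei count.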

C. elegans = C. elegans lifespan assays (liquid and plate); type: in vivo, Caenorhabditis elegans; details: for ILS at 60 µM / ILS at 66 µM: Caenorhabditis elegans; for O = Life span- extending scores in worms: score scale 0 to 2, 4 to 6 independent trials; for M = Lifespan-extending scores in worms: summary score
NRF2 [2] = assay: qPCR analysis of NRF2-regulated genes; type: cell-based, human; details: for fold induction at 10 µM: Homo sapiens
Outline: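 WI-38 cells treated with compound at 10 μM for 24 hrs, then processed by Cells-to-Ct for RNA isolation, RT and qPCR of NRF2-regulated genes (HMOX1, NQO1, GCLC, GSTM1). Expression normalized to B2M, PPIA and GAPDH; siRNA knockdown of FOXO3 or NRF2 (10 nM) preceded treatment in some runs.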

[3] = 60 μM, in liquid, wild type, with FuDR, 1.0 × 10^9 bacteria/ml, read-out: relative change of mean lifespan vs control, Trial 1
[4] = 60 μM, in liquid, wild type, with FuDR, 2.5 × 10^9 bacteria/ml, read-out: relative change of mean lifespan vs control, Trial 2
[5] = 60 μM, on plate, CF512 temperature-sensitive sterile animals, without FuDR, 2.0 × 10^10 bacteria/ml, read-out: relative change of mean lifespan vs control, Trial 3
[6] = Assay 2(z), 1.0 × 10^9 bacteria/ml, wild type + FuDR (2012 July), read-out: Lifespan assay in liquid
[7] = Assay 3(aa), 2.5 × 10^9 bacteria/ml, wild type + FuDR, read-out: Lifespan assay in liquid
[8] = Assay 4(ab), 2.0 × 10^10 bacteria/ml, CF512 worms, no FuDR, read-out: Lifespan assay on plates
[9] = WI-38 cells, 10 μM, 24 hrs, n=4, qPCR normalized by B2M, read-out: GCLC Normalized fold change
[10] = WI-38 cells, 10 μM, 24 hrs, n=4, qPCR normalized by B2M, read-out: GSTM1 Normalized fold change
[11] = WI-38 cells, 10 μM, 24 hrs, n=4, qPCR normalized by B2M, read-out: HMOX1 Normalized fold change
[12] = WI-38 cells, 10 μM, 24 hrs, n=4, qPCR normalized by B2M, read-out: NQO1 Normalized fold change

Which “J = NRF2-dependency for H2O2-resistance” value (NRF2 [1]; score) does the source give for `O=C(c1ccc([N+](=O)[O-])o1)N1CCc2ccccc21` [O13] here?
Its value is 0.

And the “J = NRF2-dependency for H2O2-resistance” value (NRF2 [1]; summary score)?
Its value is 0.

What about the “H = Potential Autophagy Induction” value (LC3A/B puncta; score) of the same compound?
The value was 0.

What about the “H = Potential Autophagy Induction” value (LC3A/B puncta; summary score) of the same compound?
The value was 0.

And the “relative change of mean lifespan vs control, Trial 6 (confirmative)” value (C. elegans; 60 μM, on plate, temperature-sensitive sterile animals, without FuDR, 1.0 × 10^11 bacteria/ml)?
The value was “+15.3%”.

What about the “relative change of mean lifespan vs control, Trial 5 (confirmative)” value (C. elegans; 60 μM, on plate, temperature-sensitive sterile animals, without FuDR, 2.0 × 10^10 bacteria/ml) of the same compound?
Its value is “+8.4%”.

And the “Lifespan, average increase” value (C. elegans; 4 or more trials)?
The value was 18.2%.

What about the ILS at 60 µM (C. elegans; [3]) of the same compound?
Its ILS at 60 µM is 32.7%.

And the ILS at 60 µM (C. elegans; [4])?
The ILS at 60 µM was 10.3%.

And the ILS at 60 µM (C. elegans; 60 μM, on plate, CF512 temperature-sensitive sterile animals, without FuDR, 1.0 × 10^11 bacteria/ml, read-out: relative change of mean lifespan vs control, Trial 4)?
The ILS at 60 µM was 15%.

And the ILS at 60 µM (C. elegans; [5])?
The ILS at 60 µM was 27.3%.

What about the ILS at 66 µM (C. elegans; [6]) of the same compound?
Its ILS at 66 µM is 32.7%.

What about the ILS at 66 µM (C. elegans; [7]) of the same compound?
Its ILS at 66 µM is 10.3%.

And the ILS at 66 µM (C. elegans; [8])?
The ILS at 66 µM was 27.3%.

And the ILS at 66 µM (C. elegans; Assay 5(ac), 1.0 × 10^11 bacteria/ml, CF512 worms, no FuDR, read-out: Lifespan assay on plates)?
The ILS at 66 µM was 15%.

And the ILS at 66 µM (C. elegans; Assay 6(ad), 2.0 × 10^10 bacteria/ml, CF512 worms, no FuDR, read-out: Lifespan assay on plates)?
The ILS at 66 µM was 8.4%.

What about the ILS at 66 µM (C. elegans; Assay 7(ae), 1.0 × 10^11 bacteria/ml, CF512 worms, no FuDR, read-out: Lifespan assay on plates) of the same compound?
Its ILS at 66 µM is 15.3%.

And the “Extension of C. elegans' lifespan (qualitative)” value (C. elegans; in at least 3 to 4 trials, group range ~10% to ~50%)?
The value was “could extend animal's lifespan”.

What about the “O = Life span- extending scores in worms” value (C. elegans) of the same compound?
Its value is 2 (2 for observed in more than 2 trials).

What about the “M = Lifespan-extending scores in worms” value (C. elegans) of the same compound?
The value was 2 (2 for observed in more than 2 trials).

And the “Lifespan, mean (FIG. 6B)” value (C. elegans; temperature-sensitive sterile rollers, on plate, without FuDR, 25° C. then ~22° C., control 18.4±0.4)?
Its value is 23.4±0.4.

What about the “Lifespan increase (FIG. 6A)” value (C. elegans; wild-type, in liquid, with FuDR, 20° C., ~60 μM) of the same compound?
Its value is roughly 33.2%.

What about the “Lifespan, mean±SD (FIG. 6A)” value (C. elegans; wild-type, in liquid, with FuDR, 20° C., ~60 μM, control 21.1±0.5) of the same compound?
The value was 28.1±1.1.

What about the “F = Potential NRF2 Activation” value (NRF2 [2]; 2-point score) of the same compound?
The value was 2.

What about the “Potential NRF2 Activation (>=2 target genes induced, by >=1.5-fold)” value (NRF2 [2]; Assay 13(p)) of the same compound?
Its value is “YES”.

And the fold induction at 10 µM (NRF2 [2]; 24 h, Assay 12(o), at 10 uM, qPCR, read-out: Induction of NRF2-regulated genes: GCLC normalized fold-change)?
The fold induction at 10 µM was 1.99.

And the fold induction at 10 µM (NRF2 [2]; 24 h, Assay 12(o), at 10 uM, qPCR, read-out: Induction of NRF2-regulated genes: GSTM1 normalized fold-change)?
The fold induction at 10 µM was 1.31.

And the fold induction at 10 µM (NRF2 [2]; 24 h, Assay 12(o), at 10 uM, qPCR, read-out: Induction of NRF2-regulated genes: HMOX1 normalized fold-change)?
Its fold induction at 10 µM is 5.52.

What about the fold induction at 10 µM (NRF2 [2]; 24 h, Assay 12(o), at 10 uM, qPCR, read-out: Induction of NRF2-regulated genes: NQO1 normalized fold-change) of the same compound?
Its fold induction at 10 µM is 2.95.

What about the fold induction at 10 µM (NRF2 [2]; rounded fold change, WI-38 cells, 10 μM, 24 hrs (RP11 for Gr-1D, RP29 for Gr-4D), read-out: Summary of effects on NRF2-regulated genes: HMOX1) of the same compound?
Its fold induction at 10 µM is 5.52.

What about the fold induction at 10 µM (NRF2 [2]; rounded fold change, WI-38 cells, 10 μM, 24 hrs (RP29 for Gr-4D), read-out: Summary of effects on NRF2-regulated genes: GSTM1) of the same compound?
The fold induction at 10 µM was 1.31.

What about the fold induction at 10 µM (NRF2 [2]; rounded fold change, WI-38 cells, 10 μM, 24 hrs (RP29 for Gr-4D), read-out: Summary of effects on NRF2-regulated genes: NQO1) of the same compound?
The fold induction at 10 µM was 2.95.

And the fold induction at 10 µM (NRF2 [2]; rounded fold change, WI-38 cells, 10 μM, 24 hrs, read-out: Summary of effects on NRF2-regulated genes: GCLC)?
Its fold induction at 10 µM is 1.99.

And the fold induction at 10 µM (NRF2 [2]; 10 μM, 24 hrs, WI-38, read-out: Expression of at least two NRF2 target genes)?
The fold induction at 10 µM was greater than 1.5.

What about the fold induction at 10 µM (NRF2 [2]; 10 μM, 24 hrs, WI-38 cells, qPCR, normalized to B2M, n = 4, read-out: GCLC expression, normalized fold change (NRF2-regulated gene)) of the same compound?
The fold induction at 10 µM was 1.99.

What about the fold induction at 10 µM (NRF2 [2]; 10 μM, 24 hrs, WI-38 cells, qPCR, normalized to B2M, n = 4, read-out: GSTM1 expression, normalized fold change (NRF2-regulated gene)) of the same compound?
Its fold induction at 10 µM is 1.31.

And the fold induction at 10 µM (NRF2 [2]; 10 μM, 24 hrs, WI-38 cells, qPCR, normalized to B2M, n = 4, read-out: HMOX1 expression, normalized fold change (NRF2-regulated gene))?
Its fold induction at 10 µM is 5.52.

And the fold induction at 10 µM (NRF2 [2]; 10 μM, 24 hrs, WI-38 cells, qPCR, normalized to B2M, n = 4, read-out: NQO1 expression, normalized fold change (NRF2-regulated gene))?
Its fold induction at 10 µM is 2.95.

And the fold induction at 10 µM (NRF2 [2]; [9])?
Its fold induction at 10 µM is 1.99.

What about the fold induction at 10 µM (NRF2 [2]; [10]) of the same compound?
The fold induction at 10 µM was 1.31.

And the fold induction at 10 µM (NRF2 [2]; [11])?
Its fold induction at 10 µM is 5.52.

And the fold induction at 10 µM (NRF2 [2]; [12])?
The fold induction at 10 µM was 2.95.

What about the “F = Potential NRF2 Activation” value (NRF2 [2]; summary score) of the same compound?
Its value is 2.

With `O=C(Nc1nc(C23CC4CC(CC(C4)C2)C3)cs1)C(c1ccccc1)c1ccccc1` [O10] as the compound, how does the “J = NRF2-dependency for H2O2-resistance” value (NRF2 [1]; score) read?
Its value is 0.

And the “J = NRF2-dependency for H2O2-resistance” value (NRF2 [1]; summary score)?
The value was 0.

What about the “H = Potential Autophagy Induction” value (LC3A/B puncta; score) of the same compound?
Its value is 0.

And the “H = Potential Autophagy Induction” value (LC3A/B puncta; summary score)?
Its value is 0.

And the ILS at 60 µM (C. elegans; [3])?
The ILS at 60 µM was 5.9%.

What about the ILS at 60 µM (C. elegans; [4]) of the same compound?
Its ILS at 60 µM is -6.2%.

What about the ILS at 60 µM (C. elegans; [5]) of the same compound?
Its ILS at 60 µM is 9.5%.

And the ILS at 66 µM (C. elegans; [6])?
Its ILS at 66 µM is 5.9%.

And the ILS at 66 µM (C. elegans; [7])?
The ILS at 66 µM was -6.2%.

And the ILS at 66 µM (C. elegans; [8])?
Its ILS at 66 µM is 9.5%.

What about the “O = Life span- extending scores in worms” value (C. elegans) of the same compound?
Its value is 0.

What about the “M = Lifespan-extending scores in worms” value (C. elegans) of the same compound?
The value was 0.

And the “F = Potential NRF2 Activation” value (NRF2 [2]; 2-point score)?
The value was 0.

And the fold induction at 10 µM (NRF2 [2]; [9])?
Its fold induction at 10 µM is 0.933.

And the fold induction at 10 µM (NRF2 [2]; [10])?
Its fold induction at 10 µM is 1.03.

And the fold induction at 10 µM (NRF2 [2]; [11])?
The fold induction at 10 µM was 0.755.

What about the fold induction at 10 µM (NRF2 [2]; [12]) of the same compound?
Its fold induction at 10 µM is 0.937.

And the “F = Potential NRF2 Activation” value (NRF2 [2]; summary score)?
Its value is 0.

Source: patent US11413278B2, “Compounds and methods for promoting stress resistance” (priority 2015, dated 2022)
